Data taken from publication PMC5702903 (CPT: Pharmacometrics & Systems Pharmacology, 2017).

What was measured:
[1] = Empirical plasma PK model; type: in vivo, rat; details: for clearance: rat, plasma, iv
[2] = ref fu,p references of Table SI; cited from earlier work
[3] = source not given; cited from earlier work
[4] = Drug transport clearance at the brain cell membrane in the PBPK model; design: species or system rat; details: comparison of QBCM_in/QBCM_out with QBBB_in/QBBB_out
[5] = Asymmetry factors; design: species or system rat; details: for AFin2, asymmetry factor: into CSFLV at BCSFB1; for AFin2, asymmetry factor / AFout2, asymmetry factor: calculated from Kp,uu,CSFLV; for AFin3, asymmetry factor: into CSFTFV at BCSFB2; for AFin3, asymmetry factor / AFout3, asymmetry factor: calculated from Kp,uu,CSFCM; for AFin1, asymmetry factor: into brainECF at BBB; for AFin1, asymmetry factor / AFout1, asymmetry factor: calculated from Kp,uu,brainECF; for AFout2, asymmetry factor: out from CSFLV at BCSFB1; for AFout3, asymmetry factor: out from CSFTFV at BCSFB2; for AFout1, asymmetry factor: out from brainECF at BBB
[6] = rat; cited from earlier work
[7] = Free fraction in brain; type: in vitro ADME; details: rat
[8] = source not given; cited from earlier work; remark: listed apart in the source
[9] = rat plasma PK model, estimate (RSE, %)
[10] = rat plasma PK model, parameter estimate (RSE, %)

Structure (SMILES) | ɷ_VPER1, interindividual variability [1, 9] | VPER1, distribution volume of the peripheral compartment 1 [1, 10] | VPL, distribution volume of the central compartment [1, 10] | Charge class [3] | ɷ_CLPL, interindividual variability [1, 9] | ɷ_QPL_PER2, interindividual variability [1, 9] | ɷ_VPL, interindividual variability [1, 9] | VPER2, distribution volume of the peripheral compartment 2 [1, 10] | clearance [1] [mL/min] | what limits the transport clearance from brainMV, via brainECF, to brainICF [4] | ɷ_QPL_PER1, interindividual variability [1, 9] | AFin2, asymmetry factor [5] | AFin3, asymmetry factor [5] | AFin1, asymmetry factor [5] | AFout2, asymmetry factor [5] | AFout3, asymmetry factor [5] | AFout1, asymmetry factor [5] | also measured
CC(=O)Nc1ccc(O)cc1 [Acetaminophen] | 51.8 (86.0) % | 363 (33.1) mL | 49.5 (59.0) mL | Neutral |  |  |  |  |  |  |  |  |  |  |  |  |  | Fraction, percentage of the drug which is reabsorbed by enterohepatic circulation [1, 10]: 0.693 (19.6); fu,p, free fraction in plasma [2]: 0.81
CC(C)NCC(O)COc1ccc(CC(N)=O)cc1 (stereo not drawn) [Atenolol] |  |  |  | Base |  |  |  |  |  |  |  |  |  |  |  |  |  | 
CN(Cc1cnc2nc(N)nc(N)c2n1)c1ccc(C(=O)N[C@@H](CCC(=O)O)C(=O)O)cc1 [Methotrexate] |  | 111 (14.6) mL | 28.0 (55.0) mL | Acid | 37.4 (46.8) % | 42.5 (42.0) % | 40.4 (75.5) % | 83.5 (34.9) mL | 8.04 | limited by QBCM_in and QBCM_out |  |  |  |  |  |  |  | 
CN1CC[C@]23c4c5ccc(O)c4O[C@H]2[C@@H](O)C=C[C@H]3[C@H]1C5 [Morphine] | 46.0 (15.3) % |  |  | Base | 17.8 (39.5) % | 86.7 (19.3) % | 80.6 (17.2) % |  |  |  | 28.8 (29.4) % |  |  |  |  |  |  | ɷ_study1, interoccasional variability [1, 9]: 42.7 (16.2) %; ɷ_study2, interoccasional variability [1, 9]: 29.7 (30.5) %
Cc1nc2n(c(=O)c1CCN1CCC(c3noc4cc(F)ccc34)CC1)CCCC2O (stereo not drawn) [Paliperidone] |  | 3,580 (35.8) mL | 26,400 (12.6) mL | Base | 42.0 (62.5) % |  | 47.5 (81.4) % |  | 196 | limited by QBBB_in and QBBB_out |  | 1.0 | 1.0 | 1.0 | 3.7 | 4.7 | 3.0 | Kp,uu,CSFCM, unbound CSFCM-to-plasma concentration ratio [6]: 0.50; Kp,uu,CSFLV, unbound CSFLV-to-plasma concentration ratio [6]: 0.50; Kp,uu,brainECF, unbound brain extracellular fluid-to-plasma concentration ratio [6]: 0.50; pKa (acid) [3]: 13.7; fraction unbound [7]: 0.065
O=C1NC(=O)C(c2ccccc2)(c2ccccc2)N1 [Phenytoin] |  | 2,050 (7.50) mL | 943 (21.5) mL | Neutral | 73.8 (12.5) % |  | 75.0 (27.2) % |  | 36 | limited by QBBB_in and QBBB_out |  | 1.0 | 1.0 | 1.0 | 7.6 | 7.7 | 4.2 | Kp,uu,CSFCM, unbound CSFCM-to-plasma concentration ratio [6]: 0.26; Kp,uu,CSFLV, unbound CSFLV-to-plasma concentration ratio [6]: 0.26; Kp,uu,brainECF, unbound brain extracellular fluid-to-plasma concentration ratio [6]: 0.26; fu,b, free fraction in brain [8]: 0.080
C=C[C@H]1C[N@@]2CC[C@H]1C[C@@H]2[C@@H](O)c1ccnc2ccc(OC)cc12 [Quinidine] | 12.8 (26.6) % |  |  |  | 23.9 (15.3) % |  |  |  |  |  | 24.3 (28.2) % |  |  |  |  |  |  | 
CCN1CCC[C@H]1CNC(=O)c1c(O)c(Cl)cc(Cl)c1OC [Raclopride] |  | 684 (19.2) mL | 48.9 (16.3) mL | Zwitterion | 14.4 (29.8) % |  |  | 493 (18.3) mL | 46.4 | limited by QBBB_in and QBBB_out |  | 1.0 | 1.0 | 1.0 | 1.1 | 1.9 | 1.4 | pKa (acid) [3]: 5.9; pKa (base) [3]: 9.0
CCN1CCC[C@H]1CNC(=O)c1c(OC)ccc(Br)c1OC [Remoxipride] |  | 253 (10.9) mL | 83.7 (18.3) mL | Base | 31.0 (12.0) % | 76.7 (13.5) % | 64.1 (32.9) % | 757 (4.00) mL | 42.2 |  | 25.1 (12.1) % |  |  |  |  |  |  | 
Cc1nc2n(c(=O)c1CCN1CCC(c3noc4cc(F)ccc34)CC1)CCCC2 [Risperidone] |  |  | 43,100 (28.1) mL | Base | 72.5 (38.7) % |  | 53.7 (78.8) % |  | 886 | limited by QBBB_in and QBBB_out |  | 1.0 | 1.0 | 1.0 | 1.3 | 1.5 | 1.3 | fu,b, free fraction in brain [8]: 0.065
